Entries after “also recorded” stand apart in the source; their conditions may differ. Non-standard residues stand in square brackets, D forms with d. No end group written: not given here. pS = N[C@@H](COP(=O)(O)O)C(=O)O
Assays:
[1] = tested on: rat aorta; assay: Endothelial-dependent relaxation of rat aorta after BzATP (ATP / P2X7R) injury, muscle bath; type: cell-based; settings: BzATP 1 mM, room temperature; for endothelial function (percent relaxation to carbachol of PE-precontracted tissue) after BzATP injury: peptide 100 and 500 μM, 1 hour
Method: Freshly isolated rat aorta was treated with 3′-O-(4-Benzoyl)benzoyl adenosine 5′-triphosphate (BzATP, 1 mM), an analogue of ATP, to induce injury in the absence or presence of NiPp (100 and 500 μM) for 1 hour at room temperature. To determine the effect of injury on endothelial function, phenylephrine (PE)-precontracted tissues were treated with carbachol (CCH; 5×10^−7 M) and the percent relaxation was determined as a change to the maximal PE-induced contraction. Data are reported as mean responses±standard deviation. n=5-6. *p<0.05, paired t-test.
Freshly isolated rat aorta was treated with 3′-O-(4-Benzoyl)benzoyl adenosine 5′-triphosphate (BzATP, 1 mM), an analogue of ATP, to induce injury in the absence or presence of NiPp, NiPp3, or scr3NiPp (A, 100 and B, 500 μM) for 1 hour at room temperature. To determine the effect of injury on endothelial function, phenylephrine (PE)-precontracted tissues were treated with escalating doses of carbachol (CCH; 10^−10 to 10^−5M) and the percent relaxation was determined as a change to the maximal PE-induced contraction. n=7. *p<0.05, two-way ANOVA with Tukey post-tests. There were significant differences between BzATP-treated vs ctrl or NiPp-treated RA.
Tissue rings were then transferred to NS and continued incubation in the absence or presence of NiPp (500 μM) for 2 h at room temperature. Control rings (Ctrl) were incubated in PL for 2.5 h. […] After treatments, RA were suspended in the muscle bath, contracted with PE and then treated with escalating doses of carbachol (CCH; 10^−8 to 10^−5M). The percent relaxation was determined as a change to the maximal PE-induced contraction. Percent relaxation to 5×10^−7 M CCH is shown. n=5-7 rats. *p<0.05 in one-way ANOVA with Tukey post-test. Data are expressed as mean±SD.
NiPp was synthesized at 3 separate times and tested in the muscle bath using rat aorta (RA). RA was either left untreated (Ctrl) or treated with BzATP (1 mM) in the absence of presence of NiPp (500 μM) in PL for 2 h at room temperature. After treatments, RA were suspended in the muscle bath, contracted with PE and then treated with escalating doses of carbachol 5×10^−7 M CCH. The percent relaxation was determined as a change to the maximal PE-induced contraction. […] Data are expressed as mean±SD.
Measurement of endothelial-dependent relaxation. […]
This produced the maximal force tension relationship as previously described. […] Contractile responses were defined by stress, calculated using force generated by tissues as follows: stress (×10^5 N/m^2)=force (g)×0.0987/area, where area=wet weight (mg)/at maximal length (mm)]/1.055.
Relaxation was calculated as percent change in stress compared to the maximal PE-induced contraction (set as 100%). […]

[2] = tested on: rat aorta; assay: Endothelial-dependent relaxation of rat aorta after cytokine (IL1β / cytomix) injury; type: cell-based; settings: 2 hrs; for endothelial function (percent relaxation to carbachol) after IL1β injury: IL1β 50 ng/ml, peptide 100 μM; for endothelial function (percent relaxation to carbachol) after cytokine injury: IL1β alone 50 ng/ml or cytomix (IL1β, TNFa, IFNg), peptide 500 μM
Method: Freshly isolated rat aorta (RA) was cut into rings and suspended in the muscle bath. Tissues were then treated with either IL1β alone (50 ng/ml) or cytomix (IL1β 50 ng/ml, TNFa, 10 ng/ml, IFNg 50 ng/ml) in the absence or presence of NiPp (500 μM) for 2 hrs, contracted with PE, and then treated with escalating doses of carbachol (CCH; 10^−8 to 10^−5M). The percent relaxation was determined as a change to the maximal PE-induced contraction. n=5-7 rats. *p<0.05 in two-way ANOVA with Tukey post-test. NiPp restores cytokines-induced endothelial dysfunction in RA.
Freshly isolated rat aorta (RA) was cut into rings and suspended in the muscle bath. Tissues were then treated with the cytokine IL1β (50 ng/ml) in the absence or presence of NiPp, NiPp3, or scr3NiPp (100 μM) for 2 hrs, contracted with PE, and then treated with escalating doses of carbachol (CCH; 10^−8 to 10^−5 M). The percent relaxation was determined as a change to the maximal PE-induced contraction. n=5-7 rats. *p<0.05 in two-way ANOVA with Tukey post-tests. There were significant differences between IL1β-treated vs ctrl or NiPp-treated RA.
Freshly isolated rat aorta (RA) was cut into rings and suspended in the muscle bath. Tissues were then treated with either IL1β alone (50 ng/ml) or cytomix (IL1β 50 ng/ml, TNFa, 10 ng/ml, IFNg 50 ng/ml) in the absence or presence of NiPp (500 μM) for 2 hrs, contracted with PE, and then treated with escalating doses of carbachol (CCH; 10−8 to 10−5 M).
Freshly isolated rat aorta (RA) was cut into rings and suspended in the muscle bath. Tissues were then treated with the cytokine IL1β (50 ng/ml) in the absence or presence of NiPp, NiPp3, or scr3NiPp (100 μM) for 2 hrs, contracted with PE, and then treated with escalating doses of carbachol (CCH; 10^−8 to 10^−5 M). NiPp3 (SEQ ID NO:77) is a control polypeptide containing non-phosphorylated sequence of X2 of NiPp. scr3NiPp3 (SEQ ID NO:79) is a control polypeptide containing scrambled sequence of X2 of NiPp.

Substance	endothelial function (percent relaxation to carbachol of PE-precontracted tissue) after BzATP injury [1]	endothelial function (percent relaxation to carbachol) after IL1β injury [2]	endothelial function (percent relaxation to carbachol) after IL1β injury ([2]; listed as scr3NiPp3)	endothelial function (percent relaxation to 5×10^−7 M CCH) after P2X7R activation by BzATP ([1]; NiPp 500 μM in PL, 1 h)	endothelial function (percent relaxation to carbachol) after cytokine injury [2]
YARAAARQARAAGSPPLA(pS)AIARR (YARAAARQARAAGSPPLA[pS]AIARR) [scr3NiPp]	did not restore	did not restore	failed to restore	–	–
YARAAARQARASPAARRA(pS)AILPG (YARAAARQARASPAARRA[pS]AILPG) [NiPp, Cell-permeant phosphopeptide mimetic of Niban: transduction domain … conjugated to the region surrounding serine 602 of Niban]	restored	restores	–	prevented; also recorded: restores	improved; also recorded: restores
YARAAARQARASPAARRASAILPG (not fully specified (residue 19)) [NiPp3]	did not restore	–	–	–	significant improvement

Reference: patent US12583895B2, “Polypeptides for restoring endothelial function and methods of use thereof” (Vanderbilt University, priority 2019, dated 2026)
